Data from patent publication US20180303772A1, “5-HYDROXYTRYPTAMINE 1B RECEPTOR-STIMULATING AGENT FOR THE TREATMENT OF MYOCARDIAL INFARCTION” (INSTITUT PASTEUR, priority 2015, published 2018).
Counter-ions that a name gives are not always drawn.

Key:
5-HT1BR = 5-HT1BR (Mus musculus, UniProt P28334)
Procedure: Counting was done based on the endogenous fluorescence. […] (d) Number of vessels (counted with endogenous GFP from Flk1^GFP/+ mouse) in fluoxetine, fluoxetine and 5HT1B inhibitor, inhibitor alone per mm^2 in the heart.
Statistical analysis was performed using GraphPad Prism software using appropriate tests (non-parametric Mann-Whitney unless specified) and a minimum of 95% confidence interval for significance; p values indicated on figures are <0.05 (*), <0.01 (**), and <0.001 (***). Figures display average values of all animals tested ±SD

Flk1^GFP/+ mice = assay: Vessel number in the heart of Flk1GFP/+ mice after 6 weeks of fluoxetine; format: in vivo; details: fluoxetine 18 mg/Kg
Source text: Counting was done based on the endogenous fluorescence. (b-c) Cryo-sections of the heart of Flk1^GFP/+ mice treated with placebo (b) or fluoxetine (c). Endogenous GFP levels are shown. (d) Number of vessels (counted with endogenous GFP from Flk1^GFP/+ mouse) in fluoxetine, fluoxetine and 5HT1B inhibitor, inhibitor alone per mm^2 in the heart. (e-f) Haematoxylin and eosin staining of heart of the placebo and the fluoxetine treated mice. (g) Quantification of the infarcted area with or without fluoxetine treatment.
(§1) Hearts were carefully dissected and snap frozen in liquid-nitrogen-cooled OCT for a few minutes and stored at −80° C. prior to cryosectioning (10 μm sections). Sections were kept at room temperature overnight before staining. Sections were then rehydrated in PBS for 10 minutes and fixed in 10% formalin for 3 minutes. The sections were then routinely stained with haematoxylin and eosin (HE) using an automated stain machine or manually with red sirius.
Statistical analysis was performed using GraphPad Prism software using appropriate tests (non-parametric Mann-Whitney unless specified) and a minimum of 95% confidence interval for significance; p values indicated on figures are <0.05 (*), <0.01 (**), and <0.001 (***). Figures display average values of all animals tested ±SD […]

C57Bl/6 mice = assay: Ischemia reperfusion (myocardial infarct), infarcted area by histology; format: in vivo; details: C57Bl/6 mice treated with fluoxetine for 6 weeks
Procedure: (e-f) Haematoxylin and eosin staining of heart of the placebo and the fluoxetine treated mice. (g) Quantification of the infarcted area with or without fluoxetine treatment.
Animals were anesthetized with ketamine (Imalgene1000 100 mg/Kg Merial) and Xylazine (Rompun2% 20 mg/Kg Bayer) prior to injury. Animals were hydrated and treated with analgesic (Buprenorphin Axience 0.3 mg/kg) twice a day for 4 days following injury.
as §1
For image analysis (fibrosis quantification) ImageJ 1.46r software was using between different photos randomly taken per section and 3 sections minimum per experimental group. The pictures were converted in a binary image and the pixel values then collected.
Statistical analysis was performed using GraphPad Prism software using appropriate tests (non-parametric Mann-Whitney unless specified) and a minimum of 95% confidence interval for significance; p values indicated on figures are <0.05 (*), <0.01 (**), and <0.001 (***). […]

Chain of 5-HT1BR (P28334 whole entry): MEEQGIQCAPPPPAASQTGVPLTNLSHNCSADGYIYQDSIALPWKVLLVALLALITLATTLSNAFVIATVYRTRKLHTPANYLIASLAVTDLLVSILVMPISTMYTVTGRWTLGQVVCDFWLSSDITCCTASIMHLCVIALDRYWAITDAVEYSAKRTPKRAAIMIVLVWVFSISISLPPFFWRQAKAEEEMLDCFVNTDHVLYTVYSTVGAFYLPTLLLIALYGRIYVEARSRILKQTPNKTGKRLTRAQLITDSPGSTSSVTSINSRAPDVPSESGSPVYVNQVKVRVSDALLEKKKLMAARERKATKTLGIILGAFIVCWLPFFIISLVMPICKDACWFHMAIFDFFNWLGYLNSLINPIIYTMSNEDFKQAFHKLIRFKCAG

| Compound | effect of 5-HT1BR inhibition on the fluoxetine-induced increase in vessel number in the heart (5-HT1BR; GR127935 hydrochloride in osmotic pump together with fluoxetine treatment) | vessel number in the heart (Flk1^GFP/+ mice; 6 weeks IP, placebo 932.9±186, p=0.017) [vessels] | vessel number in the heart (Flk1^GFP/+ mice; 6 weeks PO, placebo 932.9±186, p=0.03) [vessels] | infarcted area at the histological level (C57Bl/6 mice; 3 days after infarct, placebo 53126±11849, p=0.02) [pixels] | infarcted area, first observation after ischemia reperfusion (C57Bl/6 mice; control 5%) | vessel number in the heart (5-HT1BR; fluoxetine and PBS treated mice) [vessels per mm^2] |
| --- | --- | --- | --- | --- | --- | --- |
| COc1ccc(NC(=O)c2ccc(-c3ccc(-c4noc(C)n4)cc3C)cc2)cc1N1CCN(C)CC1 [GR127935 hydrochloride] | no increase in the vessel number in the heart was observed | – | – | – | – | – |
| CNCCC(Oc1ccc(C(F)(F)F)cc1)c1ccccc1 (stereo not drawn) [fluoxetine] | – | 1634±608 | 1474±375 | 36690±7884 | 25 % of total area | 1697±702 |
